{
  "source": "paper PMC10820135",
  "about": "“Pharmacokinetic, Tissue Distribution, Metabolite, and Toxicity Evaluation of the Matrine Derivative, (6aS, 10S, 11aR, 11bR, 11cS)-10-Methylaminododecahydro-3a, 7a-Diaza-benzo (de) Anthracene-8-thione” (Molecules, 2024)",
  "key": {"[1]": {"assay": "Acute toxicity of MASM in mice via intravenous administration", "format": "in vivo", "conditions": "ICR, mouse, in vivo, iv, mice, intravenous", "description": "(§1) All mice were administered MASM intravenously. The body weight of each mouse was measured on days 7 and 14. On the 14th day, all mice were euthanized, and the heart, liver, spleen, lung, and kidney were collected and weighed immediately. Serum was collected from the eyeballs for further biochemical analysis, and a small portion of each tissue and organ was fixed in 4% […] solution for histopathological examination. Bar graphs were generated applying Prism 8.0 (GraphPad Software Inc., San Diego, CA, USA), and HE staining samples were captured using the Leica image system."}, "[2]": {"tested_on": "ICR mice", "assay": "Acute toxicity of MASM in mice via intravenous administration", "format": "in vivo", "description": "as §1"}, "[3]": {"assay": "Stability of MASM in plasma QC samples", "format": "in vitro ADME", "conditions": "QC samples: autosampler 4℃ 8 h, -80℃ 30 days, three freeze-thaw cycles", "description": "determined by calculating the RSD of 6 samples analyzed on the same day, while the inter-day precision was determined by calculating the RSD of 3 analytical batches analyzed over 3 consecutive days.\n1.4 Extraction recovery and matrix effect\nThe extraction recovery was in assessed by comparing the peak area of the blank […]\ni n E q . […]\nExtraction recovery=Ap/Ax×100% Eq. (1)\nMatrix effect=Ax/As×100% Eq. (2)\nAp: 10 μl of high (H), medium (M), and low (L) concentration of standard solution and 300 μl of IS were added to 90 μl of blank plasma, respectively, then pre-processed by sample pretreatment method and injected to obtain the peak area A p. […]\nThe stability of analytes in plasma was assessed by analyzing peak area in three different concentration QC samples. The long-term stability was evaluated by analyzing samples that had been stored at a temperature of -80℃ for a duration of 30 days. […]\nfreeze-thaw stability was assessed by analyzing samples that had undergone three freeze-thaw cycles, transitioning from a temperature of -80℃ to 25℃. Post-preparative stability was assessed by analyzing samples that had been stored in the autosampler at 4℃ for a duration of 8 h. […]\n0.990 across the relevant concentration ranges (Supplementary Table S1). The lower limit of the quantitation (LLOQ) was determined to be 5.03 ng/ml. […]"}},
  "note": "Entries after “also recorded” stand apart in the source; their conditions may differ. Where two headings read alike, the source gives them in different places.",
  "data": [
    {"compound": "CNC1CC(=S)N2CC3CCCN4CCCC(C34)C2C1", "note": "[MASM, (6aS, 10S, 11aR, 11bR, 11cS)-10-methylaminododecahydro-3a, 7a-diaza-benzo (de) anthracene-8-thione]", "values": [
      {"measurement": "LD50 at 14 day", "setting": "[1]; 14-day observation, read-out: LD50", "value": 94.2, "unit": "mg/kg"},
      {"measurement": "LD50 at 14 day", "setting": "[1]; read-out: LD50, 95% confidence interval", "value": "70.8 to 129", "unit": "mg/kg"},
      {"measurement": "viscera indices (visceral weight to body weight) of heart, liver, spleen, lung, kidney", "setting": "[2]; day 14, vs control group, all dosages", "value": "no significant alterations; also recorded: remained unchanged"},
      {"measurement": "heart histopathology (HE staining)", "setting": "[2]; high (240 mg/kg) and medium-high (144 mg/kg) dose groups", "value": "noticeable increase in myocardial fiber density"},
      {"measurement": "spleen histopathology (HE staining)", "setting": "[2]; high and medium-high dose groups vs control", "value": "slight increase in the count of splenic sinusoids and lymph nodes"},
      {"measurement": "liver histopathology (HE staining)", "setting": "[2]; high and medium-high dose groups, accompanied by portal area bleeding", "value": "noteworthy escalation in the number of hepatocytes"},
      {"measurement": "kidney histopathology (HE staining)", "setting": "[2]; high-dose group (240 mg/kg)", "value": "proliferation and dense arrangement, accompanied by evident bleeding"},
      {"measurement": "lung histopathology (HE staining), alveolar cavity", "setting": "[2]; high-dose group (240 mg/kg)", "value": "widened, accompanied by hemorrhaging"},
      {"measurement": "lung histopathology (HE staining), alveolar wall", "setting": "[2]; medium-dose to low-dose groups", "value": "slight thinning"},
      {"measurement": "kidney histopathology, renal interstitial blood vessels", "setting": "[2]; medium-high and medium-dose groups", "value": "proliferation and dilation"},
      {"measurement": "ALP activity in plasma vs control", "setting": "[2]; mice, day 14, p > 0.05", "value": "no statistically significant differences"},
      {"measurement": "ALT activity in plasma vs control", "setting": "[2]; mice, day 14, p > 0.05", "value": "no statistically significant differences"},
      {"measurement": "AST activity in plasma vs control", "setting": "[2]; mice, day 14, p > 0.05", "value": "no statistically significant differences"},
      {"measurement": "albumin (ALB) level in plasma vs control", "setting": "[2]; mice, day 14, p > 0.05", "value": "no statistically significant differences"},
      {"measurement": "creatinine (CREA) level in plasma vs control", "setting": "[2]; mice, day 14, p > 0.05", "value": "statistically indistinguishable from those of the control group; also recorded: no statistically significant differences"},
      {"measurement": "total protein (TP) level in plasma vs control", "setting": "[2]; mice, day 14, p > 0.05", "value": "no statistically significant differences"},
      {"measurement": "urea (UREA) level in plasma vs control", "setting": "[2]; mice, day 14, p > 0.05", "value": "statistically indistinguishable from those of the control group; also recorded: no statistically significant differences"},
      {"measurement": "symptoms upon death", "setting": "[2]; mice, intravenous", "value": "convulsions, increased salivary secretion, urination, and defecation"},
      {"measurement": "overall histopathological changes of primary organs", "setting": "[2]; particularly low (31.1 mg/kg), medium-low (51.84 mg/kg), medium (86.4 mg/kg) dose groups", "value": "no significant alterations; also recorded: no substantial pathological alterations; also recorded: did not reveal any significant pathological changes"},
      {"measurement": "stability in plasma", "setting": "[3]", "value": "stable"}
    ]}
  ]
}
